Laboratory results: patent publication EP3318253B1, “COMPOSITIONS COMPRISING WNT INHIBITORS FOR TREATING CANCER” (Schmidt-Wolf, Ingo, priority 2010, dated 2012)
Read-outs that look alike come from different tables or passages of the source.

Columns and labels:
OPM-2 myeloma cells = experiment: Cell viability by DiOC6 staining, flow cytometry; format: cell-based, human; settings: for IC50: Homo sapiens, 72 h, OPM-2, 1x10^5 cells cultured three days, various concentrations
Method: (§1) Experiments were performed as reported recently.
(§2) PBL derived from healthy individuals were used as controls. […] ND, not done.

OCI-Ly8 LAM53 = experiment: Cell viability by DiOC6 staining, flow cytometry; format: cell-based; settings: Homo sapiens, 72 h; OCI-Ly8 LAM53; 1x10^5 cells cultured three days, various concentrations
Method: as §1, §2

RPMI 8226 = experiment: Cell viability by DiOC6 staining, flow cytometry; format: cell-based; settings: Homo sapiens, 72 h, 1x10^5 cells cultured three days, various concentrations
Method: as §1, §2

Raji = experiment: Cell viability by DiOC6 staining, flow cytometry; format: cell-based; settings: Homo sapiens, 72 h, 1x10^5 cells cultured three days, various concentrations
Method: as §1, §2

SU-DHL 4 = experiment: Cell viability by DiOC6 staining, flow cytometry; format: cell-based; settings: Homo sapiens, 72 h; SU-DHL 4; 1x10^5 cells cultured three days, various concentrations
Method: as §1, §2

U266 = experiment: Cell viability by DiOC6 staining, flow cytometry; format: cell-based; settings: Homo sapiens, U-266, 72 h, 1x10^5 cells cultured three days, various concentrations
Method: as §1, §2

PBMC = experiment: Cell viability by DiOC6 staining, flow cytometry (normal control cells); format: cell-based, human; settings: for IC50: Homo sapiens, 72 h, PBMC from healthy individuals, three days; for effect on normal PBMC and PBL: result in words
Method: PBMCs were isolated from blood of healthy donors by Ficoll-Hypaque density gradient centrifugation. Blood from buffy coats was mixed 1:2 with PBS/1% BSA (both PAA, Cölbe, Germany) and used for a ficoll gradient (LymphoPrep, PAA, Cölbe, Germany). After the centrifugation at 800 g for 30 minutes, the leukocyte layer was removed and transferred to new tubes. Subsequently, these cells were washed 3 times with PBS/1%BSA and re-suspended in fresh medium, consisting of RPMI medium (PAA, Cölbe, Germany) with 10% fetal calf serum (Invitrogen, Karlsruhe, Germany), 2.5% hepes buffer solution (PAA, Cölbe, Germany), and 1% penicillin/streptomycin (PAA, Cölbe, Germany).
as §1

[1] = tested on: OPM-2, U266 and RPMI 8226 cells; experiment: Cell viability by DiOC6 staining in myeloma cell lines (mean IC50, combinations); format: cell-based, human; settings: for IC50: Homo sapiens, mean of the IC50 results in OPM-2, U266 and RPMI 8226 cells; for viability of myeloma cell lines in vitro: result in words
Method: A mean IC50 value in myeloma cells was determined using the mean of the IC50 results determined in OPM-2, U266 and RPMI 8226 cells.
(§3) • Figure 1. […] Data are shown as mean ± SD. • Figure 2. […] Data are shown as mean ± SD. • Figure 3. […] (A) Flow cytometric results. […] Finally, ECL reagent was utilized for detection. • Figure 4C. […] Finally, ECL reagent was utilized for detection. • Figure 5. Effect of EA on viability of myeloma primary cells. […] Results represent data from two separate experiments. Data are shown as mean. • Figure 6. […] (A) Tumor growth and (B) overall survival were measured. Six animals were assayed per group.
Experiments were performed as reported recently. […]

lymphoma cell lines = experiment: Cell viability by DiOC6 staining in lymphoma cell lines; format: cell-based, human; settings: result in words
Method: as §1, §2

PBL [2] = experiment: Cell viability by DiOC6 staining, flow cytometry (normal control cells); settings: for IC50: Homo sapiens, PBL, 72 h; for effect on normal PBL: result in words
Method: (§4) Peripheral blood mononuclear cells (PBMC) and PBL were isolated from blood samples of healthy volunteers by Ficoll density gradient centrifugation (Lymphoprep, Nycomed, Oslo, Norway).
(§5) 1x10^5 Cells were cultured in 3 ml Medium in 6-well plates. […] The apoptosis assay was performed with 3'3-dihexyloxacarbocyanine iodide (DiOC6) detecting mitochondrial membrane potential in viable cells, and propidium iodide (PI) which binds to DNA in necrotic cells, measured by a fluorescence-activated cell sorter (FACS).
(§6) For FACS analysis, 500µl staining solution containing 80 nM DiOC6 in FACS buffer, consisting of deficient RPMI-medium with 0.5% bovine serum albumin (BSA), was mixed with equal volumes of the cell sample in a glass tube and incubated at 37°C for 15 min. After a washing step with PBS/BSA 1% the cells were re-suspended in 500µl PBS/BSA 1%. After addition of 5µl PI-solution (100µg/ml) the cells were analyzed by FACS. Using this assay, viable cells reveal high fluorescence intensity for DiOC6 and a low expression for PI. In contrary, apoptotic cells show a low expression for DiOC6 and also a low expression for PI (2). Finally, necrotic cells show a low expression for DiOC6 and a high expression for PI.
(§7) PBMC and PBL derived from healthy individuals were used as normal controls. 1x10^5 cells were cultured with each compound using various concentrations for three days. Then cell viability was measured by DIOC6 staining by flow cytometry. Results represent data from two to four separate experiments each.
(§8) PBMC and PBL derived from healthy individuals were used as normal controls. 1x10^5 cells were cultured with each compound using various concentrations for three days. Then cell viability was measured by DIOC6 staining by flow cytometry. Results represent data from 2 to 4 separate experiments each.
(§9) 1x10^5 Cells were cultured in 3 ml Medium in 6-well plates. […] The apoptosis assay was performed with 3' 3-dihexyloxacarbocyanine iodide (DiOC6) detecting mitochondrial membrane potential in viable cells, and propidium iodide (PI) which binds to DNA in necrotic cells, measured by a fluorescence-activated cell sorter (FACS).
(§10) PBL derived from healthy individuals were used as controls. 1x10^5 cells were cultured with each compound using various concentrations for three days. Then cell viability was measured by DIOC6 staining by flow cytometry and IC 50 rates were determined. Results represent data from 2 to 4 separate experiments each.
(§11) PBMC and PBL derived from healthy individuals were used as controls. 1x10^5 cells were cultured with each compound using various concentrations for three days.

PBL [3] = tested on: PBL
Method: as §4, §5, §6, §7, §8, §9, §10, §11

Daudi and Raji cells = experiment: Cell viability in combination experiments, lymphoma cells; format: cell-based, human; settings: single drug or combination; data not shown
MPC 11 = experiment: Cell viability by DiOC6 staining, flow cytometry; format: cell-based; settings: Mus musculus, 72 h; MPC 11 (murine); three days
Method: Then cell viability was measured by DIOC6 staining in flow cytometry. […] Then cell viability was measured by DIOC6 staining in flow cytometry. Results represent data from two separate experiments. […] Six animals were used in each group. […] Six animals were used in each group.

[4] = tested on: primary myeloma cells derived from bone marrow from patients with multiple myeloma; experiment: Viability of myeloma primary cells from bone marrow; format: cell-based, human; settings: incubated three days; preliminary data
Method: Bone marrow samples from patients with myeloma were taken after informed consent, single cell suspensions generated and cells ficolled. Cells were incubated with or without EA for three days and measured for viability.
as §3
Bone marrow samples from patients with myeloma were taken after informed consent, single cell suspensions generated and cells ficolled. Cells were incubated with or without CIC for three days and measured for viability.
Bone marrow samples from patients with myeloma were taken after informed consent, single cell suspensions generated and cells ficolled. Cells were incubated with or without GF for three days and measured for viability.

MPC11 myeloma cells = settings: gavage, daily dosage 450 µg per animal; for overall survival time: compared to the control group; for animals in which solid tumor nodules formed: treatment group of 6
Method: All animal experiments were done at least in duplicate with groups of 6 BALB/c mice (Charles River, Sulzfeld, Germany). 5x10^5 MCP11 murine myeloma cells were injected per mouse subcutaneously into Balb/c mice. […] Overall survival and tumor growth were measured. Tumor volume was calculated as follows: volume = length x width^2 x 0,52. Animals were killed when tumor volume reached 2000 mm^3.
• Figure 1. […] 1x10^5 cells were cultured with different compounds for three days. The concentration of thalidomide was U266 160µM for U266, RPMI 20µM for RPMI, and OPM 40µM for OPM cells. Then cell viability was measured by DIOC6 staining in flow cytometry. Results represent data from three, two and five separate experiments, respectively. Separate U266 n=3, RPMI n=2, OPM n=5 experiments. Data are shown as mean ± SD. • Figure 2. […] 1x10^5 OPM cells were cultured with the different compounds for three days. The concentration of lenalidomide was 12µM for OPM and 80µM for RPMI cells. Then cell viability was measured by DIOC6 staining in flow cytometry. Results represent data from eight and five OPM n=8, RPMI n=5 separate experiments, respectively. Data are shown as mean ± SD. • Figure 3. […] (A) Flow cytometric results. […] Western Blot analysis for the detection of β-catenin in myeloma cell lines under normal conditions. The myeloma cell lines RPMI 8226, KMS-18 and U266 were analyzed according to their β-catenin expression. • Figure 4B. […] As primary antibodies purified mouse anti-β-catenin and β-actin were used at a dilution of 1:1000 and as secondary antibody served goat anti-mouse IgG-HRP at a dilution of 1:5000. Finally, ECL reagent was utilized for detection. • Figure 4C. […] As primary antibodies Purified mouse anti-β-catenin and β-actin were used at a dilution of 1:1000 and as secondary antibody served goat anti-mouse IgG-HRP at a dilution of 1:5000. Finally, ECL reagent was utilized for detection. • Figure 5. […] Results represent data from two separate experiments. Data are shown as mean. • Figure 6. […] BALB/c mice were injected with 5x10^5 MPC11 myeloma cells subcutaneously. (A) Tumor growth and (B) overall survival were measured. Six animals were assayed per group.
All animal experiments were done at least in duplicate with groups of 6 BALB/c mice (Charles River, Sulzfeld, Germany). 5x10^5 MCP11 murine myeloma cells were injected per mouse subcutaneously into Balb/c mice. Mice were treated orally with 450µg/day CIC and 750 µg lenalidomide/day, respectively. Overall survival and tumor growth were measured. Tumor volume was calculated as follows: volume = length x width^2 x 0,52. Animals were killed when tumor volume reached 2000 mm^3.
• Figure 7. […] 1x10^5 cells were cultured with different compounds for three days. The concentration of thalidomide was U266 160µM for U266, RPMI 20µM for RPMI, and OPM 40µM for OPM cells. Then cell viability was measured by DIOC6 staining in flow cytometry. Results represent data from three, two and five separate experiments, respectively. Separate U266 n=3, RPMI n=2, OPM n=5 experiments. Data are shown as mean ± SD. • Figure 8. […] 1x10^5 OPM cells were cultured with the different compounds for three days. The concentration of lenalidomide was 12µM for OPM and 80µM for RPMI cells. Then cell viability was measured by DIOC6 staining in flow cytometry. Results represent data from eight and five OPM n=8, RPMI n=5 separate experiments, respectively. Data are shown as mean ± SD. • Figure 9. […] (A) Flow cytometric results. (B) We analyzed the effect of CIC on the Wnt/beta catenin pathway by Western blot. • Figure 10A. Western Blot analysis for the detection of β-catenin in myeloma cell lines under normal conditions. The myeloma cell lines RPMI 8226, KMS-18 and U266 were analyzed according to their β-catenin expression. • Figure 10B.

KMS18 = experiment: Cell viability by DiOC6 staining, flow cytometry; format: cell-based; settings: Homo sapiens, 72 h, three days
Source text: as §2

Row | Compound | IC50 (OPM-2 myeloma cells) | IC50 (OCI-Ly8 LAM53) | IC50 (RPMI 8226) | IC50 (Raji) | IC50 (SU-DHL 4) | IC50 (U266) | IC50 (PBMC) | effect on normal PBMC and PBL (PBMC) | IC50 [1] | viability of lymphoma cell lines in vitro (lymphoma cell lines) | IC50 (PBL [2]) | effect on normal PBL (PBL [2]) | IC50 (MPC 11) | viability of myeloma cell lines in vitro [1] | growth of primary myeloma cells [4] | overall survival time (MPC11 myeloma cells) | animals in which solid tumor nodules formed (MPC11 myeloma cells) | further results
1 | Nc1cccc2c1CN(C1CCC(=O)NC1=O)C2=O (racemic) [lenalidomide, (RS)-3-(4-amino-1-oxo-3H-isoindol-2-yl)piperidine-2,6-dione] | 13 µM | > 1000 µM | 2 µM | > 1000 µM | > 1000 µM | 34 µM | > 400 µM | marginal | 16.3 µM | no effect | > 200 µM | marginal |  |  |  |  |  | viability of OPM-2 and RPMI-8226 myeloma cells ([1]; lenalidomide 12µM for OPM, 80µM for RPMI, three days): significant decrease in viability
2 | O=C1CCC(N2C(=O)c3ccccc3C2=O)C(=O)N1 (racemic) [thalidomide, (RS)-2-(2,6-dioxopiperidin-3-yl)-1H-isoindole-1,3(2H)-dione] | 53 µM | > 400 µM | > 400 µM | > 400 µM | > 400 µM | 300 µM | > 400 µM | no effect | > 251 µM | no effect | > 400 µM |  |  |  |  |  |  | viability of OPM-2, U-266 and RPMI-8226 myeloma cells ([1]; thalidomide 160µM for U266, 20µM for RPMI, 40µM for OPM, three days): significant decrease in viability; effect on normal PBL (PBL [3]): no effect
3 | CC(C)C[C@H](NC(=O)[C@H](Cc1ccccc1)NC(=O)c1cnccn1)B(O)O [bortezomib] |  |  |  |  |  |  |  |  |  |  |  |  |  |  |  |  |  | viability of OPM-2 myeloma cells (OPM-2 myeloma cells; bortezomib alone or in combination, data not shown): significant decrease in viability
4 | COc1cccc2c1C(=O)c1c(O)c3c(c(O)c1C2=O)C[C@@](O)(C(=O)CO)C[C@@H]3O[C@H]1C[C@H](N)[C@H](O)[C@H](C)O1 [doxorubicin] |  |  |  |  |  |  |  |  |  |  |  |  |  |  |  |  |  | viability of Daudi and Raji cells (Daudi and Raji cells): significant decrease in viability
5 | COC1=CC(=O)C[C@@H](C)[C@]12Oc1c(Cl)c(OC)cc(OC)c1C2=O [griseofulvin, (2S,6'R)-7-chloro-2',4,6-trimethoxy-6'-methyl-3H,4'H-spiro [1-benzofuran-2,1'-cyclohex[2]ene]-3,4'-dione] |  | 30 µM | 26 µM | 33 µM | 22 µM | 18 µM | 180 µM |  | 22 µM | significantly (p<0.05) decreased | 80 µM |  | 41 µM | significantly decreased the viability | inhibits the growth | significantly (p<0.05) longer | 5 of 6 | 
6 | Cc1cc(CC(C)CC(C)(C)C)n(O)c(=O)c1 (stereo not shown) [piroctone olamine] | 0.7 µM | 0.6 µM | 0.6 µM | 0.6 µM | 0.7 µM | 0.6 µM |  |  | 0.6 µM | significantly (p<0.05) decreased | 18 µM | marginal | 0.8 µM | significantly decreased the viability | inhibits the growth | significantly (p<0.05) longer | 5 of 6 | IC50 (KMS18): 0.6 µM
